Assay results published in patent publication US7786093B2, “Antistress agent” (Health Wellness Foods Corporation, priority 2004, dated 2010).

What was measured:
human mononuclear cells [1] = experiment: IFN-γ production by ConA- or PHA-stimulated mononuclear cells with DEX (ELISA); assay type: cell-based; conditions: DEX 10 nM, 24 h
Experimental: (a) In a manner similar to that in Example 1, mononuclear cells were prepared from blood of an adult, and the cultivation was initiated at a concentration of 5.0×10^5 mononuclear cells/mL. In a manner similar to that in Example 1, ConA or PHA as a cell stimulatory factor was added to the culture in 50 μL per one well so as to make a final concentration of 2.0 μg/mL or 5.0 μg/mL, respectively, thereby inducing cytokine production. […] After completion of the incubation, the amount of IFN-γ in the culture supernatant was measured by the ELISA.
The determination by the ELISA is shown in the following.
(§1) A 2 μg/mL solution of a mouse anti-human IFN-γ antibody (manufactured by Endogen Inc.) prepared in a borate buffer solution was added in 50 μL per one well on a 96-well ELISA plate, and the plate was allowed to stand at 4° C. for a day to adhere the mouse anti-human IFN-γ antibody to each well. The above-mentioned culture supernatant was added in 50 μL per one well on the ELISA plate adhering the mouse anti-human IFN-γ antibody, and the plate was allowed to stand at room temperature for 90 minutes, thereby binding the IFN-γ in the culture supernatant to the mouse anti-human IFN-γ antibody adhered on the plate. After washing the plate, a 0.5 μg/mL solution of a biotin-labeled mouse anti-human IFN-γ antibody (manufactured by Endogen Inc.) prepared in a borate buffer solution was added thereto in 100 μL per one well to bind to the IFN-γ bound with the mouse anti-human IFN-γ antibody adhered on the plate. After washing out an unbound biotin-labeled mouse anti-human IFN-γ antibody, a solution of Avidin-HRP (manufactured by BD PharMingen Inc.) diluted 1000-fold in a borate buffer solution was added thereto in 100 μL per one well to bind to the biotin-labeled mouse anti-human IFN-γ antibody bound with the IFN-γ. After washing out an excess of Avidin-HRP, a phosphate buffer solution containing 0.006 V/V % of hydrogen peroxide and 0.1 W/V % of orthophenylenediamine was added thereto in 100 μL per one well to allow to react at room temperature for 15 minutes, and then the reaction was stopped by addition of 1.5 N sulfuric acid. The absorbance at a measurement wavelength of 492 nm and a reference wavelength of 630 nm was measured, and the concentration of the IFN-γ in the culture supernatant was obtained from a calibration curve prepared with a recombinant IFN-γ.

[2] = system: spleen cells of BALB/c mice; experiment: Final test: cytokine production of spleen cells from DEX-administered mice given nigerooligosaccharide in drinking water (ELISA); assay type: in vivo; conditions: DEX 60 μg/mouse i.p., ion-exchanged water as drinking water
Experimental: The prepared spleen cells were suspended in an RPMI 1640 culture medium so as to make a concentration of 5.0×10^6 cells/mL. This suspension was inoculated in 100 μL per one well on a 96-well tissue culture plate, and further a solution of a cell stimulatory factor, (1) PHA or (2) LPS, dissolved in the RPMI 1640 culture medium so as to make a final concentration of 12.5 μg/mL or 20 μg/mL, respectively, was added in 100 μL per one well. The spleen cells were cultivated at 37° C. for 24 hours in a 5% CO2 incubator, and the concentrations of cytokines in the culture supernatant, IL-4 and IFN-γ for the foregoing (1) or IL-10 and TNF-α for the foregoing (2), were measured by the ELISA. The amount of IFN-γ was measured on the basis of the ELISA described in Example 2. The amounts of IL-4, IL-10 and TNF-α were measured in a manner similar to the ELISA described in Example 2, except that the IFN-γ in the ELISA described in Example 2 was replaced by IL-4, IL-10 or TNF-α.
Next, in this test, to 14 weeks old, female BALB/c mice (6 mice per one group) was given as a drinking water ion-exchanged water or a 1 W/V % solution of a highly pure nigerooligosaccharide (19.8% by weight of nigerose, 36.5% by weight of a trisaccharide fraction mainly composed of nigerosylglucose, 40.2% by weight of a tetra- or more saccharide fraction mainly composed of nigerosylmaltose, and 3.5% by weight of glucose) in ion-exchanged water, and the mice were fed with a commercially available feed. […] After 24 hours of the administration, the spleen was excised, and spleen cells were cultivated at the same conditions as those in the preliminary test, and the concentrations of cytokines in the culture supernatant were measured.

human mononuclear cells [3] = experiment: Suppression by nigerose of the DEX-induced decrease in growth of ConA- or PHA-stimulated human mononuclear cells (WST-1 absorbance); assay type: cell-based; conditions: for Absorbance (at 450 nm to 630 nm): DEX 10 nM, 24 h
Experimental: After a blood sample obtained from an adult was diluted two-fold with PBS, a Ficoll-Paque Plus solution (manufactured by Amersham Corporation) was added slowly to make double layers (blood diluted two-fold with PBS Ficoll-Paque Plus solution=4:3), which were centrifuged at the conditions of 400×g, 20° C. and 40 minutes. A mononuclear cell fraction present in the middle layer was recovered, and this mononuclear cell fraction washed twice with a 10-fold volume of PBS. The obtained mononuclear cells were suspended in an RPMI 1640 culture medium (manufactured by GIBCO BRL Corporation) to obtain a suspension of peripheral blood mononuclear cells. The number of cells in the suspension of peripheral blood mononuclear cells was measured with an automatic blood cell counter (manufactured by Sysmex Co., Ltd., Type CDA-500), and the mononuclear cells were suspended in RPMI 1640 culture medium so as to make the number of cells at a concentration of 2.0×10^6 cells/mL. This suspension was inoculated at 50 μL per one well on a 96-well tissue culture plate. To the inoculated suspension was added a solution of ConA or PHA in the RPMI 1640 culture medium in 50 μL per one well so as to make a final concentration of 2.0 μg/mL or 5.0 μg/mL, respectively. […] The mononuclear cells were incubated at 37° C. for 24 hours in a 5% CO2 incubator. At 4 hours before completion of the incubation, a solution of WST-1 (manufactured by Dojindo Laboratories Inc.), dissolved in 0.4 mM 1-methoxy PMS (manufactured by Dojindo Laboratories Inc.) to make a concentration of 10 mM, was added in 10 μL per one well, and the absorbance at a measurement wavelength of 450 nm and a reference wavelength of 630 nm was measured at the time of completion of the incubation.
WST-1, when taken into living cells, is reduced by a intracellular mitochondrial dehydrogenase to produce water-soluble formazan. Because the amount of the thus-produced formazan is proportional to the number of the living cells, the measurement of the absorbance of formazan can be made as an index of the cell growth.

human mononuclear cells [4] = experiment: IL-12 and IFN-γ production by mononuclear cells stimulated with heat-killed Lactobacillus plantarum L137, with DEX (ELISA); assay type: cell-based; conditions: for IFN-γ / IL-12: DEX 10 nM, Lactobacillus plantarum L137 1.0 μg/mL, 24 h
Experimental: as §1
To the culture was added a cell stimulatory factor, which was heated dead body cells of Lactobacillus plantarum L137, so as to make a final concentration of […]. […] After completion of the incubation, the amounts of IL-12 and IFN-γ in the culture supernatant were measured by the ELISA.

BALB/c mice = experiment: Thymic and splenic atrophy due to DEX in mice; assay type: in vivo; conditions: control group (commercial feed), DEX 200 μg/mouse i.p., 24 h, female BALB/c mice
Experimental: Female BALB/c mice (8 weeks old) were divided into a group fed with a commercially available feed (control group) and a group fed with a commercially available feed mixed with a nigerooligosaccharide liquid sugar (Nigero S: content of nigerooligosaccharide: 30.8% by weight; manufactured by Takeda Food Products, Ltd.) at a concentration of 5% by weight (nigerooligosaccharide group). […] After 24 hours of the administration, the thymus and spleen of each mouse were excised, and the weights of the excised thymus and spleen were measured.

human mononuclear cells [5] = experiment: Activated apoptosis of mononuclear cells (ssDNA Apoptosis ELISA kit); assay type: cell-based; conditions: for Absorbance (415 nm), degree of apoptosis: 24 h
Experimental: In a manner similar to that in Example 1, mononuclear cells were prepared from blood of an adult, and the cultivation was initiated at a concentration of 5.0×10^5 mononuclear cells/mL in a manner similar to that in Example 1. To the culture was added ConA or a hemolytic streptococcus preparation OK-432 (picibanil, manufactured by Chugai Pharmaceutical Co., Ltd.) as a cell stimulatory factor, so as to make a final concentrations of 2.0 μg/mL or 1.0 μg/mL, respectively. At this time, nigerose was added to each of the culture groups so as to make a concentration of 1.0 μg/mL and 10 μg/mL, where a nigerose-free control group was provided to each of the culture groups. The mononuclear cells were incubated at 37° C. for 24 hours in a 5% CO2 incubator. After completion of the incubation, apoptosis cells were fixed with an ssDNA Apoptosis ELISA kit (manufactured by Chemicon International, Inc.) which could specifically detect only the apoptosis cells, treated with a DNA-denaturing agent, then stained, and the absorbance (415 nm) was measured to quantify the degree of apoptosis.

[6] = nigerose 0 μg/mL, ConA 2.0 μg/mL
[7] = nigerose 0 μg/mL, PHA 5.0 μg/mL
[8] = nigerose 10 μg/mL, ConA 2.0 μg/mL
[9] = nigerose 1 μg/mL, ConA 2.0 μg/mL
[10] = nigerose 1 μg/mL, PHA 5.0 μg/mL
[11] = nigerose 10 μg/mL, PHA 5.0 μg/mL
[12] = nigerose 100 μg/mL, ConA 2.0 μg/mL
[13] = nigerose 100 μg/mL, PHA 5.0 μg/mL

`C[C@@H]1C[C@H]2[C@@H]3CCC4=CC(=O)C=C[C@]4(C)[C@@]3(F)[C@@H](O)C[C@]2(C)[C@@]1(O)C(=O)CO` [DEX, Dexamethasone] was tested, and the “Amount of IFN-γ production” value (human mononuclear cells [1]; [6]) was 0.106 ± 0.046 ng/mL, the “Amount of IFN-γ production” value (human mononuclear cells [1]; [7]) was 0.119 ± 0.022 ng/mL and the “IL-10 concentration in the culture supernatant” value ([2]; LPS) was 0.021 ± 0.011 ng/mL. For the same compound, the “TNF-α concentration in the culture supernatant” value ([2]; LPS) was 0.373 ± 0.062 ng/mL, the “IFN-γ concentration in the culture supernatant” value ([2]; PHA) was 0.059 ± 0.027 ng/mL and the “IL-4 concentration in the culture supernatant” value ([2]; PHA) was 2.1 ± 0.8 pg/mL. The “Absorbance (at 450 nm to 630 nm)” value (human mononuclear cells [3]; [6]) was 0.286 ± 0.004, the “Absorbance (at 450 nm to 630 nm)” value (human mononuclear cells [3]; [7]) was 0.299 ± 0.004 and the IFN-γ (human mononuclear cells [4]; nigerose 0 μg/mL) was 1.748 ± 0.307 ng/mL. For the same compound, the Weight of spleen (BALB/c mice) was 78.3 ± 19.3 mg and the Weight of thymus (BALB/c mice) was 28.8 ± 10.3 mg.
In the case of `OC[C@H]1O[C@H](O[C@H]2[C@H](O)[C@@H](CO)OC(O)[C@@H]2O)[C@H](O)[C@@H](O)[C@@H]1O` (some centres unmarked) [Nigerose, nigerose], the “Absorbance (415 nm), degree of apoptosis” value (human mononuclear cells [5]; nigerose 1.0 μg/mL, ConA 2.0 μg/mL) is reported as 1.631 ± 0.175, the “Absorbance (415 nm), degree of apoptosis” value (human mononuclear cells [5]; nigerose 1.0 μg/mL, OK-432 1.0 μg/mL) is reported as 1.549 ± 0.276 and the “Absorbance (415 nm), degree of apoptosis” value (human mononuclear cells [5]; nigerose 1.0 μg/mL, culture solution (no cell stimulatory factor)) is reported as 1.113 ± 0.053. For the same compound, the “Absorbance (415 nm), degree of apoptosis” value (human mononuclear cells [5]; [8]) was 1.372 ± 0.165, the “Absorbance (415 nm), degree of apoptosis” value (human mononuclear cells [5]; nigerose 10 μg/mL, OK-432 1.0 μg/mL) was 1.767 ± 0.203 and the “Absorbance (415 nm), degree of apoptosis” value (human mononuclear cells [5]; nigerose 10 μg/mL, culture solution (no cell stimulatory factor)) was 1.134 ± 0.065. The “effect on the apoptosis” value (human mononuclear cells [5]; nigerose-added group) was “suppressive effect”, the “Amount of IFN-γ production” value (human mononuclear cells [1]; [9]) was 0.075 ± 0.070 ng/mL and the “Amount of IFN-γ production” value (human mononuclear cells [1]; [10]) was 0.144 ± 0.022 ng/mL. The “Amount of IFN-γ production” value (human mononuclear cells [1]; [8]) was 0.136 ± 0.095 ng/mL, the “Amount of IFN-γ production” value (human mononuclear cells [1]; [11]) was 0.219 ± 0.095 ng/mL and the “Amount of IFN-γ production” value (human mononuclear cells [1]; [12]) was 0.365 ± 0.053 ng/mL. The “Amount of IFN-γ production” value (human mononuclear cells [1]; [13]) was 0.320 ± 0.038 ng/mL, the “decrease in the growth of mononuclear cells due to DEX” value (human mononuclear cells [3]; addition of nigerose, ConA or PHA stimulation) was “significantly suppressed concentration-dependently” and the “Absorbance (at 450 nm to 630 nm)” value (human mononuclear cells [3]; [9]) was 0.289 ± 0.004. For the same compound, the “Absorbance (at 450 nm to 630 nm)” value (human mononuclear cells [3]; [10]) was 0.290 ± 0.002, the “Absorbance (at 450 nm to 630 nm)” value (human mononuclear cells [3]; [8]) was 0.307 ± 0.003 and the “Absorbance (at 450 nm to 630 nm)” value (human mononuclear cells [3]; [11]) was 0.305 ± 0.009. For the same compound, the “Absorbance (at 450 nm to 630 nm)” value (human mononuclear cells [3]; [12]) was 0.319 ± 0.004, the “Absorbance (at 450 nm to 630 nm)” value (human mononuclear cells [3]; [13]) was 0.319 ± 0.007 and the “decrease of IL-12 and IFN-γ due to DEX” value (human mononuclear cells [4]; addition of nigerose, Tables 2 and 3) was “significantly suppressed concentration-dependently”. It also gave an IFN-γ (human mononuclear cells [4]; nigerose 0.1 μg/mL) of 1.895 ± 0.816 ng/mL, an IL-12 (human mononuclear cells [4]; nigerose 0.1 μg/mL) of 0.093 ± 0.021 ng/mL and an IFN-γ (human mononuclear cells [4]; nigerose 1 μg/mL) of 1.866 ± 0.890 ng/mL. It also gave an IL-12 (human mononuclear cells [4]; nigerose 1 μg/mL) of 0.130 ± 0.042 ng/mL, an IFN-γ (human mononuclear cells [4]; nigerose 10 μg/mL) of 2.677 ± 1.000 ng/mL and an IL-12 (human mononuclear cells [4]; nigerose 10 μg/mL) of 0.171 ± 0.016 ng/mL.
